Earlier results as cited in patent publication US20140228364A1, “Ophthalmic Compositions Comprising Prostaglandin F2 Alpha Derivatives and Hyaluronic Acid” (priority 2011, published 2014).

Row | SMILES | Solubility in water
1 | CCCCC[C@H](O)/C=C/[C@H]1[C@H](O)CC(=O)[C@H]1C/C=C\CCCC(=O)O [8-isoprostaglandin E2] | almost insoluble in water
2 | CC(C)OC(=O)CCC/C=C\C[C@@H]1[C@@H](CC[C@@H](O)CCc2ccccc2)[C@H](O)C[C@@H]1O [Latanoprost, isopropyl-(Z)-7-[(1R,2R,3R,5S)-3,5-dihydroxy-2-[(3R)-3-hydroxy-5-phenylpentyl]cyclopentyl]-5-heptenoate] | almost insoluble in water

Other lines, results leading:

Row | Solubility in water | SMILES
3 | almost insoluble in water | CCNC(=O)CCC/C=C\C[C@@H]1[C@@H](/C=C/[C@@H](O)CCc2ccccc2)[C@H](O)C[C@@H]1O [bimatoprost]
4 | almost insoluble in water | CC(C)OC(=O)CCC/C=C\C[C@@H]1[C@@H](/C=C/C(F)(F)COc2ccccc2)[C@H](O)C[C@@H]1O [tafluprost]
5 | almost insoluble in water | CC(C)OC(=O)CCC/C=C\C[C@@H]1[C@@H](/C=C/[C@@H](O)COc2cccc(C(F)(F)F)c2)[C@H](O)C[C@@H]1O [travoprost, 20-ethyl prostaglandin F2α-(+)-fluprostenol isopropyl ester]
6 | almost insoluble in water | CCCCCCCC(=O)CC[C@@H]1[C@@H](C/C=C\CCCC(=O)OC(C)C)[C@@H](O)C[C@H]1O [unoprostone isopropyl, 13,14-dihydro-20-ethyl-15-ketoprostaglandin F2α-isopropylester]
